Measurements from patent US20100029590A1, “METHODS FOR TREATING OR PREVENTING HEMORRHAGIC CYSTITIS USING A GLYCEROPHOSPHATE SALT” (PRELIEF INC., priority 2007, published 2010).

Test system: patients suffering from radiation cystitis
Experiment: Clinical observation of radiation cystitis patients after prostatic brachytherapy given oral Prelief® (CGP): average number of micturitions per night and symptoms
Assay type: in vivo, human
Details: for frequency of urination: six patients
From the text: This example depicts a method of using calcium glycerophosphate (CGP) in treating radiation cystitis in a clinical setting. Methods similar to that exemplified herein, however, is equally applicable to using any glycerophosphate salt in treating or preventing any type of hemorrhagic cystitis.
All six patients, aging from 51 to 74 year old at the time, were under prostatic brachytherapy treatment. […] Two Prelief® tablets, each containing about 0.335 gram CGP, were orally administered to each patient three times a day starting at about 0 to 8 months after the brachytherapy. […] Some patients were also treated with another therapy after the radiation, such as by a stent, or with the administration of AINES, Trospium Chloride, or Tamsulosina. On their post brachytherapy visitations, each patient was asked, among other things, the average number of micturitions per night.
This is in comparison to up to 12 times per night expected micturations in severe cases of this type when patients are given regular medications. The frequency of urination was further reduced by continuing oral administration of CGP.
14, 2002. […] Oral administration of CGP was again reported to be effective in reducing symptoms of hemorrhagic cystitis, e.g., the frequency of urination was reduced to about 7 times or about 2.5 times per night after oral administration of CGP for about 4 months or about 9 months, respectively, following the removal of the stent.

## calcium glycerophosphate [CGP]
Patient #1, about 1 month following removal of a stent (increased symptoms)
  frequency of urination, patient #1: about 11 times per night
Patient #1, about 3 months following brachytherapy, before oral CGP (baseline)
  frequency of urination, patient #1: about 11 times per night
Patient #1, after oral administration of CGP for about 5 months
  frequency of urination, patient #1: about 7 times per night
Patient #1, oral CGP for about 4 months following removal of the stent
  frequency of urination, patient #1: about 7 times per night
Patient #1, oral CGP for about 9 months following removal of the stent
  frequency of urination, patient #1: about 2.5 times per night
Reported by each of the six patients after oral administration of CGP
  symptoms of radiation cystitis: Reduced symptoms of radiation cystitis
Reported by the patients, oral CGP (data not shown)
  pain in bladder: reduced pain in bladder
After oral administration of CGP for about three months
  frequency of urination: 4.5-7 times per night
Before oral administration of CGP (baseline)
  frequency of urination: 8-11 times per night
Succeeding seven months of oral CGP
  frequency of urination: 3-7 times per night
